Consider 24 compounds from patent publication US9403847B2, “Substituted heteroaryl fused derivatives as P13K inhibitors” (Incyte Corporation, priority 2009, dated 2016).

One test has as its system B cells. Briefly: B cell proliferation assay ([3H]-thymidine incorporation, anti-human IgM stimulation). The class given is cell-based. The following applies: 72 h, purified human B cells, goat F(ab')2 anti-human IgM 10 μg/ml, three days plus 12 hrs [3H]-thymidine. As for the experimental part:
To acquire B cells, human PBMC were isolated from the peripheral blood of normal, drug free donors by standard density gradient centrifugation on Ficoll-Hypague (GE Healthcare, Piscataway, N.J.) and incubated with anti-CD19 microbeads (Miltenyi Biotech, Auburn, Calif.). The B cells were then purified by positive immunosorting using an autoMacs (Miltenyi Biotech) according to the manufacture's instruction.
The purified B cells (2×10^5/well/200 μL) were cultured in 96-well ultra-low binding plates (Corning, Corning, N.Y.) in RPMI1640, 10% FBS and goat F(ab′)2 anti-human IgM (10 μg/ml) (Invitrogen, Carlsbad, Calif.), in the presence of different amount of test compounds, for three days. [^3H]-thymidine (1 μCi/well) (PerkinElmer, Boston, Mass.) in PBS was then added to the B cell cultures for an additional 12 hrs before the incorporated radioactivity was separated by filtration with water through GF/B filters (Packard Bioscience, Meriden, Conn.) and measured by liquid scintillation counting with a TopCount (Packard Bioscience). […] See Table 2 for data related to compounds of the invention.

Another test concerns the target T1, PI3Kδ (p110δ/p85α) (Homo sapiens, UniProt O00329).
T1 construct: purchased Millipore (Bedford, Mass.)
Kind of test: PI3Kδ scintillation proximity assay (enzyme assay A). The class given is biochemical. To be noted: 20 μM PIP2, 20 μM ATP, 4 nM PI3Kδ, 210 minutes, room temperature; read-out: IC50 data for PI3Kδ enzyme assay A (PI3Kd Enzyme Assay A). From the text: Materials: [γ-^33P]ATP (10 mCi/mL) was purchased from PerkinElmer (Waltham, Mass.). Lipid kinase substrate, D-myo-Phosphatidylinositol 4,5-bisphosphate (PtdIns(4,5)P2)D (+)-sn-1,2-di-O-octanoylglyceryl, 3-O-phospho linked (PIP2), CAS 204858-53-7, was purchased from Echelon Biosciences (Salt Lake City, Utah). PI3Kδ (p110δ/p85α) was purchased from Millipore (Bedford, Mass.). ATP, MgCl2, DTT, EDTA, MOPS and CHAPS were purchased from Sigma-Aldrich (St. Louis, Mo.). Wheat Germ Agglutinin (WGA) YSi SPA Scintillation Beads was purchased from GE healthcare life sciences (Piscataway, N.J.).
Assay: The kinase reaction was conducted in polystyrene 384-well matrix white plate from Thermo Fisher Scientific in a final volume of 25 μL. Inhibitors were first diluted serially in DMSO and added to the plate wells before the addition of other reaction components. The final concentration of DMSO in the assay was 0.5%. The PI3K assays were carried out at room temperature in 20 mM MOPS, pH 6.7, 10 mM MgCl2, 5 mM DTT and CHAPS 0.03%. Reactions were initiated by the addition of ATP, the final reaction mixture consisted of 20 μM PIP2, 20 μM ATP, 0.2 μCi [γ-^33P] ATP, 4 nM PI3Kδ. Reactions were incubated for 210 minutes and terminated by the addition of 40 μL SPA beads suspended in quench buffer: 150 mM potassium phosphate pH 8.0, 20% glycerol. 25 mM EDTA, 400 μM ATP. The final concentration of SPA beads is 1.0 mg/mL. After the plate sealing, plates were shaken overnight at room temperature and centrifuged at 1800 rpm for 10 minutes, the radioactivity of the product was determined by scintillation counting on Topcount (PerkinElmer). IC50 determination was performed by fitting the curve of percent control activity versus the log of the inhibitor concentration using the GraphPad Prism 3.0 software.

Where a name gives a salt, the structure may show the parent alone. Where only a bound is given, the exact number is not on record here.

T1 sequence (O00329 whole entry): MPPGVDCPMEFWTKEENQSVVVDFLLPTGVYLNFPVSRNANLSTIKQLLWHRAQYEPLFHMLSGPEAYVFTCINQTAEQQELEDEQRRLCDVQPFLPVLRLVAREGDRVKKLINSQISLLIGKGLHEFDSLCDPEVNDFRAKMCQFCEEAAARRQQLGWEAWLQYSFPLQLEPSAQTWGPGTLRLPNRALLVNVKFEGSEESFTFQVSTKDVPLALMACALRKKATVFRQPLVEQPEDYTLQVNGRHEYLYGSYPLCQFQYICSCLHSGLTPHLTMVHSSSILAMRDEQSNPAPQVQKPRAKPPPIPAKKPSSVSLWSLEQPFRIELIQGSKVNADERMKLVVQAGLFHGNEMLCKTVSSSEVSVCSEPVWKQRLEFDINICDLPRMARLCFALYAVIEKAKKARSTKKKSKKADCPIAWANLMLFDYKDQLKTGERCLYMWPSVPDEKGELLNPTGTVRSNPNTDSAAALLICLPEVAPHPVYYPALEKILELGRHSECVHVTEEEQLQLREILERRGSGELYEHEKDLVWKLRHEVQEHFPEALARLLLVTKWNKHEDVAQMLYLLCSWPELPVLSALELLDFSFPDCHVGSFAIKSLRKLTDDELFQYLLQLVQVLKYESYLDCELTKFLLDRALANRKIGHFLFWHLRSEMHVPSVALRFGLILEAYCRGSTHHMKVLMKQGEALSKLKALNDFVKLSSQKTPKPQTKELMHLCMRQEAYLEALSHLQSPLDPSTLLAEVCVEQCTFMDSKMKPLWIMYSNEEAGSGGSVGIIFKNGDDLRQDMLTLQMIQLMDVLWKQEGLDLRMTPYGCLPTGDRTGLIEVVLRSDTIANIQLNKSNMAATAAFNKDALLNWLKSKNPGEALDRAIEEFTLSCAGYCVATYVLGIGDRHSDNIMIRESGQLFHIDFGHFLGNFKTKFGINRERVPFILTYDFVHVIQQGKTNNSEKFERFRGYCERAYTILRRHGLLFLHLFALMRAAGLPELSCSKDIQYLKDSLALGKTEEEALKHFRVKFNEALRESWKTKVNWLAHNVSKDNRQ
T1 sequence (P27986 whole entry partner): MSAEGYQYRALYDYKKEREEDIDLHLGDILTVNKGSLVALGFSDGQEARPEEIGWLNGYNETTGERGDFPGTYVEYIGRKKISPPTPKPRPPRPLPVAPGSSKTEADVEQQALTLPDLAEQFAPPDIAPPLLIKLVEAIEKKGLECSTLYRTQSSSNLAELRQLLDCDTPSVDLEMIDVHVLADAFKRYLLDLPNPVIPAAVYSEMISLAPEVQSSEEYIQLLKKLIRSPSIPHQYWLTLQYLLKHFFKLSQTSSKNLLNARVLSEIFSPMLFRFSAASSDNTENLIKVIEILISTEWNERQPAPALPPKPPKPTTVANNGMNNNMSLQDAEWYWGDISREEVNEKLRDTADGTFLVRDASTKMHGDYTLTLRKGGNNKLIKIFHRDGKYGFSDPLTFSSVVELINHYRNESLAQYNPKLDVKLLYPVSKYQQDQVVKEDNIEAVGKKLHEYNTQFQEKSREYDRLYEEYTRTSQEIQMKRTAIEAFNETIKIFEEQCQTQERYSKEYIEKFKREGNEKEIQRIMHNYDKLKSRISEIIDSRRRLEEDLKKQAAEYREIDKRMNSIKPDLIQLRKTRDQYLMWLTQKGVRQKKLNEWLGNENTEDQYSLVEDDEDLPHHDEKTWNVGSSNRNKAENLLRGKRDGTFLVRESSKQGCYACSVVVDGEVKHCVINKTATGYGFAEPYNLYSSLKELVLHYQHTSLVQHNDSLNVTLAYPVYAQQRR

`Cc1cccc2nc(C(C)Nc3ncnc4[nH]cnc34)c(-c3cc(F)cc(F)c3)n12` (stereo not shown) [Example 1, N-{1-[3-(3,5-Difluorophenyl)-5-methylimidazo[1,2-a]pyridin-2-yl]ethyl}-9H-purin-6-amine]: the IC50 is under 500 nM in the test with B cells and under 200 nM on PI3Kδ (p110δ/p85α).
For `CC(Nc1ncnc2[nH]cnc12)c1nc2ccccn2c1-c1cccc(F)c1` (stereo not shown) [Example 2, N-{1-[3-(3-Fluorophenyl)imidazo[1,2-a]pyridin-2-yl]ethyl}-9H-purin-6-amine], the IC50 is under 500 nM with B cells and under 200 nM on PI3Kδ (p110δ/p85α).
In the case of `CC(Nc1ncnc2[nH]cnc12)c1nc2sccn2c1-c1cc(F)cc(F)c1` (stereo not shown) [Example 3, N-{1-[5-(3,5-Difluorophenyl)imidazo[2,1-b][1,3]thiazol-6-yl]ethyl}-9H-purin-6-amine bis(trifluoroacetate)], the IC50 on PI3Kδ (p110δ/p85α) was over 2000 nM.
Consider `Cc1csc2nc(C(C)Nc3ncnc4[nH]cnc34)c(-c3cccc(F)c3)n12` (stereo not shown) [Example 4, N-{1-[5-(3-Fluorophenyl)-3-methylimidazo[2,1-b][1,3]thiazol-6-yl]ethyl}-9H-purin-6-amine bis(trifluoroacetate)], for which the IC50 with B cells was in the range of 1000 to 2500 nM; at PI3Kδ (p110δ/p85α) it was 500 to 990 nM.
The matching figures for `Cc1cn2c(-c3cccc(F)c3)c(C(C)Nc3ncnc4[nH]cnc34)nc2s1` (stereo not shown) [Example 5, N-{1-[5-(3-Fluorophenyl)-2-methylimidazo[2,1-b][1,3]thiazol-6-yl]ethyl}-9H-purin-6-amine]: 2500 to 5000 nM and over 2000 nM.
For `CC(Nc1ncnc2[nH]cnc12)c1nc2ccc(Cl)cn2c1-c1cccc(F)c1` (stereo not shown) [Example 6, N-{1-[6-Chloro-3-(3-fluorophenyl)imidazo[1,2-a]pyridin-2-yl]ethyl}-9H-purin-6-amine bis(trifluoroacetate)], in that order: under 500 nM and under 200 nM.
For `CC(Nc1ncnc2[nH]cnc12)c1nc2cccc(Cl)n2c1-c1cccc(F)c1` (stereo not shown) [Example 7, N-{1-[5-Chloro-3-(3-fluorophenyl)imidazo[1,2-a]pyridin-2-yl]ethyl}-9H-purin-6-amine tris(trifluoroacetate)], in that order: under 500 nM and under 200 nM.
Take `Cc1ccc2nc(C(C)Nc3ncnc4[nH]cnc34)c(-c3cccc(F)c3)n2c1` (stereo not shown) [Example 8, N-{1-[3-(3-Fluorophenyl)-6-methylimidazo[1,2-a]pyridin-2-yl]ethyl}-9H-purin-6-amine bis(trifluoroacetate)]: the values for the IC50 in the test with B cells and at PI3Kδ (p110δ/p85α) were 1000 to 2500 nM and 500 to 990 nM, respectively.
As to `Cc1ccn2c(-c3cccc(F)c3)c(C(C)Nc3ncnc4[nH]cnc34)nc2c1` (stereo not shown) [Example 9, N-{1-[3-(3-Fluorophenyl)-7-methylimidazo[1,2-a]pyridin-2-yl]ethyl}-9H-purin-6-amine bis(trifluoroacetate)], the IC50 in the test with B cells is over 5000 nM; on PI3Kδ (p110δ/p85α), over 2000 nM.
For `Cc1cccn2c(-c3cccc(F)c3)c(C(C)Nc3ncnc4[nH]cnc34)nc12` (stereo not shown) [Example 10, N-{1-[3-(3-Fluorophenyl)-8-methylimidazo[1,2-a]pyridin-2-yl]ethyl}-9H-purin-6-amine bis(trifluoroacetate)], in that order: under 500 nM and under 200 nM.
For `CC(Nc1ncnc2[nH]cnc12)c1nc2c(Cl)cccn2c1-c1cccc(F)c1` (stereo not shown) [Example 11, N-{1-[8-Chloro-3-(3-fluorophenyl)imidazo[1,2-a]pyridin-2-yl]ethyl}-9H-purin-6-amine bis(trifluoroacetate)], in that order: 500 to 1000 nM and under 200 nM.
On to `CC(Nc1ncnc2[nH]cnc12)c1nc2cc(Cl)ccn2c1-c1cccc(F)c1` (stereo not shown) [Example 13, N-{1-[7-Chloro-3-(3-fluorophenyl)imidazo[1,2-a]pyridin-2-yl]ethyl}-9H-purin-6-amine], for which the IC50 at PI3Kδ (p110δ/p85α) is under 200 nM.
In the case of `CC(Nc1ncnc2[nH]cnc12)c1nc2c(F)cccn2c1-c1cccc(F)c1` (stereo not shown) [Example 14, N-{1-[8-Fluoro-3-(3-fluorophenyl)imidazo[1,2-a]pyridin-2-yl]ethyl}-9H-purin-6-amine], the IC50 in the test with B cells was 500 to 1000 nM; on PI3Kδ (p110δ/p85α), under 200 nM.
On to `CC(Nc1ncnc2[nH]cnc12)c1nc2c(C(F)(F)F)cccn2c1-c1cccc(F)c1` (stereo not shown) [Example 15, N-{1-[3-(3-Fluorophenyl)-8-(trifluoromethyl)imidazo[1,2-a]pyridin-2-yl]ethyl}-9H-purin-6-amine bis(trifluoroacetate)], for which the IC50 at PI3Kδ (p110δ/p85α) fell in the range of 990 to 2000 nM.
Consider `CC(Nc1ncnc2[nH]cnc12)c1nc2c(C#N)cccn2c1-c1cccc(F)c1` (stereo not shown) [Example 16, 3-(3-Fluorophenyl)-2-[1-(9H-purin-6-ylamino)ethyl]imidazo[1,2-a]pyridine-8-carbonitrile bis(trifluoroacetate)], for which the IC50 on PI3Kδ (p110δ/p85α) lay in the range of 990 to 2000 nM.
Same read-out and setting: with `Cc1ccc(-c2c(C(C)Nc3ncnc4[nH]cnc34)nc3ccccn23)cc1` (stereo not shown) [Example 17, N-{1-[3-(4-Methylphenyl)imidazo[1,2-a]pyridin-2-yl]ethyl}-9H-purin-6-amine] the figure was 500 to 990 nM.
Take `CC(Nc1ncnc2[nH]cnc12)c1nc2ccccn2c1-c1cccc(F)c1F` (stereo not shown) [Example 18, N-{1-[3-(2,3-Difluorophenyl)imidazo[1,2-a]pyridin-2-yl]ethyl}-9H-purin-6-amine]: the IC50 fell in the range of 1000 to 2500 nM in the test on B cells and 200 to 500 nM on PI3Kδ (p110δ/p85α).
The matching figures for `CC(Nc1ncnc2[nH]cnc12)c1nc2ccccn2c1-c1ccccc1F` (stereo not shown) [Example 19, N-{1-[3-(2-Fluorophenyl)imidazo[1,2-a]pyridin-2-yl]ethyl}-9H-purin-6-amine]: under 500 nM and 200 to 500 nM.
For the compound `Cc1ccccc1-c1c(C(C)Nc2ncnc3[nH]cnc23)nc2ccccn12` (stereo not shown) [Example 20, N-{1-[3-(2-Methylphenyl)imidazo[1,2-a]pyridin-2-yl]ethyl}-9H-purin-6-amine], on PI3Kδ (p110δ/p85α), the IC50 lay within 990 to 2000 nM.
As for `CC(Nc1ncnc2[nH]cnc12)c1nc2ccccn2c1-c1cc(F)ccc1F` (stereo not shown) [Example 21, N-{1-[3-(2,5-Difluorophenyl)imidazo[1,2-a]pyridin-2-yl]ethyl}-9H-purin-6-amine], the values for the IC50 in the test on B cells and at PI3Kδ (p110δ/p85α) were 2500 to 5000 nM and under 200 nM, respectively.
On to `Cc1cccc(-c2c(C(C)Nc3ncnc4[nH]cnc34)nc3ccccn23)c1` (stereo not shown) [Example 22, N-{1-[3-(3-Methylphenyl)imidazo[1,2-a]pyridin-2-yl]ethyl}-9H-purin-6-amine], for which the IC50 on PI3Kδ (p110δ/p85α) lay within 500 to 990 nM.
For `CC(Nc1ncnc2[nH]cnc12)c1nc2ccccn2c1-c1cc(F)cc(F)c1` (stereo not shown) [Example 23, N-{1-[3-(3,5-Difluorophenyl)imidazo[1,2-a]pyridin-2-yl]ethyl}-9H-purin-6-amine], the IC50 lay in the range of 1000 to 2500 nM in the test on B cells and 200 to 500 nM on PI3Kδ (p110δ/p85α).
In the case of `CC(Nc1ncnc2[nH]cnc12)c1nc2ccccn2c1-c1ccc(F)cc1` (stereo not shown) [Example 24, N-{1-[3-(4-Fluorophenyl)imidazo[1,2-a]pyridin-2-yl]ethyl}-9H-purin-6-amine], at PI3Kδ (p110δ/p85α), the IC50 is 990 to 2000 nM.
As to `CC(Nc1ncnc2[nH]cnc12)c1nn2ccccc2c1-c1cc(F)cc(F)c1` (stereo not shown) [Example 25, N-{1-[3-(3,5-Difluorophenyl)pyrazolo[1,5-a]pyridin-2-yl]ethyl}-9H-purin-6-amine trifluoroacetate], the IC50 with B cells is 500 to 1000 nM; on PI3Kδ (p110δ/p85α), under 200 nM.
